According to the NIST ThermoML archive (doi:10.1016/j.jct.2015.06.024):

Experiment: mn = molality of the nth substance listed, in mol/kg
Conditions: 84.5 kPa, Liquid; for speed of sound: Frequency=3 MHz, Sing-around technique in a fixed-path interferometer; for mass density: Vibrating tube method

O=C(O)[C@@H]1CCCN1 [L-proline] + O
Conditions | mass density, 288.15 K [kg/m3] | mass density, 293.15 K [kg/m3] | mass density, 298.15 K [kg/m3] | mass density, 303.15 K [kg/m3] | mass density, 308.15 K [kg/m3] | speed of sound, 288.15 K [m/s] | speed of sound, 293.15 K [m/s] | speed of sound, 298.15 K [m/s] | speed of sound, 303.15 K [m/s] | speed of sound, 308.15 K [m/s]
m1 = 0.04355 | 1000.55 | 999.631 | 998.453 | 997.041 | 995.413 | 1470.3 | 1486.1 | 1500.1 | 1512.3 | 1522.8
m1 = 0.05237 | 1000.84 | 999.916 | 998.737 | 997.322 | 995.693 | 1471 | 1486.8 | 1500.8 | 1512.9 | 1523.4
m1 = 0.06122 | 1001.13 | 1000.21 | 999.025 | 997.607 | 995.975 | 1471.7 | 1487.6 | 1501.5 | 1513.6 | 1524
m1 = 0.06959 | 1001.41 | 1000.48 | 999.295 | 997.877 | 996.241 | 1472.5 | 1488.2 | 1502.1 | 1514.2 | 1524.6
m1 = 0.07882 | 1001.71 | 1000.78 | 999.588 | 998.167 | 996.529 | 1473.2 | 1488.9 | 1502.8 | 1514.8 | 1525.2
m1 = 0.08768 | 1002 | 1001.07 | 999.877 | 998.452 | 996.813 | 1474 | 1489.6 | 1503.5 | 1515.4 | 1525.8
m1 = 0.09661 | 1002.3 | 1001.36 | 1000.16 | 998.734 | 997.093 | 1474.7 | 1490.3 | 1504.1 | 1516.1 | 1526.4
m1 = 0.1056 | 1002.59 | 1001.65 | 1000.45 | 999.02 | 997.377 | 1475.4 | 1491 | 1504.7 | 1516.7 | 1526.9
m1 = 0.1234 | 1003.17 | 1002.23 | 1001.02 | 999.585 | 997.937 | 1476.8 | 1492.3 | 1506 | 1517.9 | 1528.1
m1 = 0.1414 | 1003.76 | 1002.8 | 1001.59 | 1000.15 | 998.498 | 1478.3 | 1493.7 | 1507.3 | 1519.1 | 1529.3
m1 = 0.1591 | 1004.34 | 1003.37 | 1002.15 | 1000.71 | 999.051 | 1479.8 | 1495.2 | 1508.7 | 1520.5 | 1530.6
m1 = 0.1775 | 1004.93 | 1003.96 | 1002.74 | 1001.28 | 999.622 | 1481.3 | 1496.6 | 1510.1 | 1521.8 | 1531.8
m1 = 0.1955 | 1005.51 | 1004.53 | 1003.3 | 1001.85 | 1000.18 | 1482.8 | 1498 | 1511.4 | 1523 | 1533
m1 = 0.2134 | 1006.09 | 1005.1 | 1003.87 | 1002.4 | 1000.73 | 1484.2 | 1499.4 | 1512.6 | 1524.2 | 1534.1

CCCCO [butan-1-ol] + O
Conditions | mass density, 288.15 K [kg/m3] | mass density, 293.15 K [kg/m3] | mass density, 298.15 K [kg/m3] | mass density, 303.15 K [kg/m3] | mass density, 308.15 K [kg/m3] | speed of sound, 288.15 K [m/s] | speed of sound, 293.15 K [m/s] | speed of sound, 298.15 K [m/s] | speed of sound, 303.15 K [m/s] | speed of sound, 308.15 K [m/s]
m1 = 0.01342 | 998.939 | 998.039 | 996.876 | 995.476 | 993.859 | 1467.6 | 1483.6 | 1497.7 | 1510 | 1520.6
m1 = 0.02701 | 998.774 | 997.873 | 996.708 | 995.306 | 993.686 | 1468.7 | 1484.7 | 1498.7 | 1510.9 | 1521.3
m1 = 0.04053 | 998.614 | 997.712 | 996.547 | 995.143 | 993.508 | 1469.9 | 1485.7 | 1499.6 | 1511.7 | 1522.2
m1 = 0.05431 | 998.455 | 997.552 | 996.384 | 994.976 | 993.352 | 1471 | 1486.7 | 1500.5 | 1512.5 | 1522.9
m1 = 0.06771 | 998.296 | 997.389 | 996.218 | 994.809 | 993.182 | 1472.1 | 1487.7 | 1501.4 | 1513.3 | 1523.6
m1 = 0.08132 | 998.137 | 997.231 | 996.058 | 994.647 | 992.992 | 1473.1 | 1488.6 | 1502.3 | 1514.1 | 1524.4
m1 = 0.1063 | 997.846 | 996.934 | 995.757 | 994.341 | 992.707 | 1475.1 | 1490.5 | 1504 | 1515.7 | 1525.7
m1 = 0.1358 | 997.518 | 996.602 | 995.417 | 993.998 | 992.357 | 1477.4 | 1492.5 | 1505.8 | 1517.4 | 1527.2

CCO [ethanol] + O
Conditions | mass density, 288.15 K [kg/m3] | mass density, 293.15 K [kg/m3] | mass density, 298.15 K [kg/m3] | mass density, 303.15 K [kg/m3] | mass density, 308.15 K [kg/m3] | speed of sound, 288.15 K [m/s] | speed of sound, 293.15 K [m/s] | speed of sound, 298.15 K [m/s] | speed of sound, 303.15 K [m/s] | speed of sound, 308.15 K [m/s]
m1 = 0.02159 | 998.9 | 998.003 | 996.845 | 995.446 | 993.829 | 1467.4 | 1483.4 | 1497.5 | 1509.8 | 1520.4
m1 = 0.04347 | 998.707 | 997.81 | 996.654 | 995.257 | 993.639 | 1468.2 | 1484.2 | 1498.2 | 1510.5 | 1521
m1 = 0.06495 | 998.526 | 997.632 | 996.474 | 995.076 | 993.46 | 1469.1 | 1485 | 1498.9 | 1511.1 | 1521.6
m1 = 0.08646 | 998.318 | 997.424 | 996.265 | 994.87 | 993.243 | 1470 | 1485.8 | 1499.7 | 1511.7 | 1522.2
m1 = 0.1087 | 998.132 | 997.24 | 996.081 | 994.683 | 993.05 | 1470.8 | 1486.5 | 1500.4 | 1512.4 | 1522.8
m1 = 0.1306 | 997.942 | 997.051 | 995.892 | 994.494 | 992.873 | 1471.7 | 1487.3 | 1501.1 | 1513 | 1523.3
m1 = 0.1749 | 997.562 | 996.671 | 995.508 | 994.111 | 992.498 | 1473.4 | 1488.9 | 1502.5 | 1514.2 | 1524.4
m1 = 0.2188 | 997.195 | 996.303 | 995.144 | 993.747 | 992.123 | 1475 | 1490.4 | 1503.8 | 1515.5 | 1525.5
